Entries after “also recorded” stand apart in the source; their conditions may differ.
Assays:
[1] = test system: Piezo 2, CaVα2δ-1, ARNT2, Mafb and Kv1.4 gene expression; assay: qPCR of ion channel and transcription factor gene expression in mouse DRG primary culture treated with chemotherapy or oxidizing agent; assay type: cell-based
Description: Model: C57Bl6 females, 8 to 15 weeks old (sexually mature young adult mice)
The next morning, place 1.25 μg/ml cisplatin with the other molecules to be tested. […]
The RNA is extracted using Macherey-Nagel's “NucleoSpin RNA” kit.
Reverse transcriptions were performed following the protocol of the “SuperScript III Reverse Transcriptase” kit from Thermo Fisher Scientific, doubling the quantities of RNA and products used in order to obtain a higher concentration of cDNA.
The qPCRs were performed with undiluted cDNA obtained by reverse-transcription using 4.625 μL of cDNA and 5.375 μL of SyberROX PCR Mix (final 10 μL per well).
When the cycle threshold (CT)>35, the gene is considered to be not expressed in the cells analyzed.
To compare our results with and without treatment, we calculated the delta between the target gene and the reference gene (36B4) for each condition (e.g. dCTPIEZO2=CTPIEZO2−CT36B4=27.4−21.6=5.8 (control); 30.6-23.4=7.2 (cisplatin)).
We then calculated the delta delta CT of the target gene for the test condition and the control conditions (e.g. ddCTPIEZO2=dCTPIEZO2 (cisplatin)−[…]=7.2−5.8=1.4).
Finally, we determined the relative expression by calculating: 2^^−ddCT (e.g. for PIEZO2:2^^−ddCT=2^^−1.4=0.40).
The results correspond to the mean±SEM.
Mouse DRGs resulting from primary culture were treated with TBHP at 10 or 30 μM or with 1.25 μg/ml cisplatin (positive control) versus control (CTRL). mRNA expression was measured by qPCR and normalized with the 36B4 reference gene. The results correspond to the mean±SEM.

[2] = test system: Arnt2, Piezo 2 and CaVα2δ-1 gene expression; assay: qPCR of reporter genes in primary cultured DRG neurons exposed to cisplatin plus test molecules; assay type: cell-based, mouse; conditions: for effect on Piezo2, CaVα2δ-1 and ARNT2 expression, molecule taken alone: ex vivo primary cultured neurons, 24 h exposure to 1.25 μg/ml cisplatin (FIGS. 5-9)
Description: Treatment of the DRGs for 24 hours.
The effect of different molecules was tested on the expression of the same reporter genes, Pizeo 2, CaVα2δ-1 and ARNT2, using qPCR on primary cultured DRG neurons: • NAC • Beta-carotene (provitamin A) • Vitamin B12 • Luteolin (flavone)

DRG neurons = assay: Phase-contrast microscopy of cultured DRG neurons (morphology, neuronal networks); assay type: cell-based, mouse; conditions: for effect on the morphology of DRG neurons (cell or network level): molecule taken alone with cisplatin, micrographs not shown
[3] = test system: Piezo2, CaVα2δ-1 and ARNT2 expression; assay: Reporter gene expression in vivo in the animal exposed to a chemotherapy protocol; conditions: animal exposed to a chemotherapy protocol (not shown)
[4] = test system: tactile hypersensitivity triggered by cisplatin and paclitaxel; assay: Von Frey test of tactile hypersensitivity / chemo-induced neuropathy; assay type: in vivo, mouse

In the case of N.N.[Cl][Pt][Cl] [cisplatin], the “relative expression of PIEZO2 (2^-ddCT)” value ([1]; cells treated with cisplatin compared to control cells normalized to 1, reference gene 36B4) is reported as 0.40 and the “effects on Mafb mRNA expression” value ([1]; cisplatin 1.25 μg/ml, 0, 4, 8 and 16 h, normalized with 36B4 (FIG. 3)) is reported as “not significant”.
In the case of CC1=C(/C=C/C(C)=C/C=C/C(C)=C/C=C/C=C(C)/C=C/C=C(C)/C=C/C2=C(C)CCCC2(C)C)C(C)(C)CCC1 [beta-carotene, Beta-carotene], the “effect on Piezo2, CaVα2δ-1 and ARNT2 expression, molecule taken alone” value [2] is reported as “effect only at a 5 μM dose, and not at the lower doses tested (0.3, 1 and 3 μM)” and the “toxicity to cultured neurons” value (DRG neurons; beta-carotene 5 μM (not shown)) is reported as “slightly toxic”.
In the case of CC(C)(C)OO [TBHP, tert-butyl hydroperoxide], the “expression of Kv1.4 (negative control)” value ([1]; TBHP at 10 or 30 μM (FIG. 4)) is reported as “unaffected”.
cobalamin [vitamin B12] was tested, and the “effect of vitamin B12 taken alone on gene expression” value ([2]; dose of 25 and 50 μM, 24 h, 1.25 μg/ml cisplatin (FIG. 7)) was “no effect”, the “effect on Piezo2, CaVα2δ-1 and ARNT2 expression, molecule taken alone” value [2] was “does not appear to have a conclusive chemoprotective effect” and the “toxicity to neuronal morphology” value (DRG neurons; vitamin B12 at a dose of 50 μM (not shown)) was “some toxicity”.
O=c1cc(-c2ccc(O)c(O)c2)oc2cc(O)cc(O)c12 [luteolin, Luteolin] was tested, and the “effect on Piezo2, CaVα2δ-1 and ARNT2 expression, molecule taken alone” value [2] was “does not appear to bring any improvement” and the “effect on the morphology of DRG neurons (cell or network level)” value (DRG neurons) was “does not appear to bring any improvement”.
For CC(=O)N[C@@H](CS)C(=O)O [NAC, N-acetylcysteine], the “effect on Piezo2, CaVα2δ-1 and ARNT2 expression, molecule taken alone” value [2] was “allow Piezo2, CaVα2δ-1 and ARNT2 expression levels to rise; also recorded: strongly limits this disruption in expression”, the “effect on the morphology of DRG neurons (cell or network level)” value (DRG neurons) was “protective effect” and the “Piezo2, CaVα2δ-1 and ARNT2 expression levels in vivo” value [3] was “allow Piezo2, CaVα2δ-1 and ARNT2 expression levels to rise”. The “chemo-induced neuropathies in a mouse model” value ([4]; mouse model) was “suppresses the resulting neuropathies” and the “tactile hypersensitivity in response to mechanical stimuli (Von Frey test)” value ([4]; triggered by cisplatin and paclitaxel (not shown)) was “dramatically reduce tactile hypersensitivity”.

— patent US20250127735A1, “NOVEL COMPOSITION COMPRISING N-ACETYLCYSTEINE FOR OVERCOMING THE ADVERSE EFFECTS OF A CHEMOTHERAPY” (PRONUTRI, priority 2022, published 2025)
